According to patent US20240336654A1, “ANTIMICROBIAL PEPTIDOMIMETICS” (SPEXIS AG, priority 2021, published 2024):
Where a SMILES comes first, the peptide text is derived from it. Bridges are numbered along the chain shown (N, C = ends). [ ]: non-standard residue; d: D form. The star is where a group is joined. Val(Nα-amidino) = CC(C)[C@H](NC(=N)N)C(=O)*; Hyp = O=C(O)[C@@H]1C[C@@H](O)CN1; Pen = CC(C)(S)[C@H](N)C(=O)O; dDab = NCC[C@@H](N)C(=O)O; Dab = NCC[C@H](N)C(=O)O

What was measured:
Assay type in all cases: cell-based
[1] = system: human red blood cells (hRBC); details: red cells of human, 1 h, 200 μg/mL
How it was run: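 Percent hemolysis derived from OD540 of supernatants relative to full lysis by 2.5% Triton X-100 (PBS baseline). Washed fresh human erythrocytes (20% v/v) were exposed to 200 μg/mL peptide for 1 h at 37 °C with shaking.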

[2] = system: Klebsiella pneumoniae SSI3010; details: SSI3010
How it was run: (§1)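 CLSI broth microdilution, slightly modified: cation-adjusted Mueller-Hinton II broth with about 5×10^5 CFU/mL from a 0.5 McFarland suspension, and two-fold serial peptide dilutions with Polysorbate 80 at 0.002% final. MIC (μg/mL) was the lowest concentration with no visible growth after 18-20 hours at 35° C.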

[3] = system: Escherichia coli MCR-1 Af 45; details: MCR-1 Af 45
How it was run: as §1

[4] = system: Escherichia coli ATCC 25922; details: ATCC 25922
How it was run: as §1

Klebsiella pneumoniae SSI3010 MIC [2]	Escherichia coli MCR-1 Af45 MIC [3]	Escherichia coli ATCC 25922 MIC [4]	Compound	Hemolysis at 0.2 g/L [1]
0.25 µg/mL	0.0625 µg/mL	0.125 µg/mL	CC[C@H](C)[C@H](NC(=O)[C@@H]1C[C@@H](O)CN1C(=O)[C@@H](N)C(C)C)C(=O)N[C@H]1CCC(=O)NCC[C@@H](C(=O)N[C@@H](Cc2ccc(O)cc2)C(=O)O)NC(=O)[C@H](CCN)NC(=O)[C@H](CCN)NC(=O)[C@H](CCCCN)NC(=O)[C@@H](CCN)NC(=O)[C@H]([C@@H](C)O)NC(=O)[C@H](CCN)NC(=O)[C@H](CCCNC(=N)N)NC(=O)[C@H](CC(N)=O)NC(=O)[C@H](CO)NC(=O)[C@H](Cc2ccc(O)cc2)NC1=O [Example 79, Val-Hyp-Ile-Glu-Tyr-Ser-Asn-Arg-Dab-Thr-^DDab-Lys-Dab-Dab-Dab-Tyr] (H-V[Hyp]IEYSNR[Dab]T[dDab]K[Dab][Dab][Dab]Y-OH; lactam 4-15)	<1%
0.125 µg/mL	0.0625 µg/mL	0.125 µg/mL	CC[C@H](C)[C@H](NC(=O)[C@@H]1C[C@@H](O)CN1C(=O)[C@@H](NC(=N)N)C(C)C)C(=O)N[C@@H]1C(=O)N[C@@H](Cc2ccc(O)cc2)C(=O)N[C@@H]([C@@H](C)O)C(=O)N[C@@H](CC(N)=O)C(=O)N[C@@H](CCCNC(=N)N)C(=O)N[C@@H](CCN)C(=O)N[C@@H](CO)C(=O)N[C@H](CCN)C(=O)N[C@@H](CCCCN)C(=O)N[C@@H](CCN)C(=O)N[C@@H](CCN)C(=O)N[C@H](C(=O)N[C@@H](Cc2ccc(O)cc2)C(=O)O)CSSC1(C)C [Example 80, Gua-Val-Hyp-Ile-Pen-Tyr-Thr-Asn-Arg-Dab-Ser-^DDab-Lys-Dab-Dab-Cys-Tyr] ({Val(Nα-amidino)}-[Hyp]I[Pen]YTNR[Dab]S[dDab]K[Dab][Dab]CY-OH; disulfide 3-14)	<1%
0.25 µg/mL	0.125 µg/mL	0.125 µg/mL	CC[C@H](C)[C@H](NC(=O)[C@@H]1C[C@@H](O)CN1C(=O)[C@@H](NC(=N)N)C(C)C)C(=O)N[C@@H]1C(=O)N[C@@H](Cc2ccc(O)cc2)C(=O)N[C@@H]([C@@H](C)O)C(=O)N[C@@H](CC(N)=O)C(=O)N[C@@H](CCCNC(=N)N)C(=O)N[C@@H](CCN)C(=O)N[C@@H]([C@@H](C)O)C(=O)N[C@H](CCN)C(=O)N[C@@H](CO)C(=O)N[C@@H](CCN)C(=O)N[C@@H](CCN)C(=O)N[C@H](C(=O)N[C@@H](Cc2ccc(O)cc2)C(=O)O)CSSC1(C)C [Example 81, Gua-Val-Hyp-Ile-Pen-Tyr-Thr-Asn-Arg-Dab-Thr-^DDab-Ser-Dab-Dab-Cys-Tyr] ({Val(Nα-amidino)}-[Hyp]I[Pen]YTNR[Dab]T[dDab]S[Dab][Dab]CY-OH; disulfide 3-14)	<1%
0.25 µg/mL	0.125 µg/mL	0.125 µg/mL	CC[C@H](C)[C@H](NC(=O)[C@@H]1C[C@@H](O)CN1C(=O)[C@@H](NC(=N)N)C(C)C)C(=O)N[C@@H]1C(=O)N[C@@H](Cc2ccc(O)cc2)C(=O)N[C@@H]([C@@H](C)O)C(=O)N[C@@H](CC(N)=O)C(=O)N[C@@H](CCCNC(=N)N)C(=O)N[C@@H](CCN)C(=O)N[C@@H](CO)C(=O)N[C@H](CCN)C(=O)N[C@@H](CO)C(=O)N[C@@H](CCN)C(=O)N[C@@H](CCN)C(=O)N[C@H](C(=O)N[C@@H](Cc2ccc(O)cc2)C(=O)O)CSSC1(C)C [Example 82, Gua-Val-Hyp-Ile-Pen-Tyr-Thr-Asn-Arg-Dab-Ser-^DDab-Ser-Dab-Dab-Cys-Tyr] ({Val(Nα-amidino)}-[Hyp]I[Pen]YTNR[Dab]S[dDab]S[Dab][Dab]CY-OH; disulfide 3-14)	<1%
0.125 µg/mL	0.03125 µg/mL	0.03125 µg/mL	CC[C@H](C)[C@H](NC(=O)[C@@H]1C[C@@H](O)CN1C(=O)[C@@H](NC(=N)N)C(C)C)C(=O)N[C@H]1CCNC(=O)CC[C@@H](C(=O)N[C@@H](Cc2ccc(O)cc2)C(=O)O)NC(=O)[C@H](CCN)NC(=O)[C@H](CCN)NC(=O)[C@H](CCCCN)NC(=O)[C@@H](CCN)NC(=O)[C@H]([C@@H](C)O)NC(=O)[C@H](CCN)NC(=O)[C@H](CCCNC(=N)N)NC(=O)[C@H](CC(N)=O)NC(=O)[C@H](CO)NC(=O)[C@H](Cc2ccc(O)cc2)NC1=O [Example 83, Gua-Val-Hyp-Ile-Dab-Tyr-Ser-Asn-Arg-Dab-Thr-^DDab-Lys-Dab-Dab-Glu-Tyr] ({Val(Nα-amidino)}-[Hyp]I[Dab]YSNR[Dab]T[dDab]K[Dab][Dab]EY-OH; lactam 3-14)	<1%
0.125 µg/mL	0.03125 µg/mL	0.0625 µg/mL	CC[C@H](C)[C@H](NC(=O)[C@@H]1C[C@@H](O)CN1C(=O)[C@@H](NC(=N)N)C(C)C)C(=O)N[C@H]1CCNC(=O)CC[C@@H](C(=O)N[C@@H](Cc2ccc(O)cc2)C(=O)O)NC(=O)[C@H](CCN)NC(=O)[C@H](CCN)NC(=O)[C@H](CCCCN)NC(=O)[C@@H](CCN)NC(=O)[C@H](CO)NC(=O)[C@H](CCN)NC(=O)[C@H](CCCNC(=N)N)NC(=O)[C@H](CC(N)=O)NC(=O)[C@H](CO)NC(=O)[C@H](Cc2ccc(O)cc2)NC1=O [Example 84, Gua-Val-Hyp-Ile-Dab-Tyr-Ser-Asn-Arg-Dab-Ser-^DDab-Lys-Dab-Dab-Glu-Tyr] ({Val(Nα-amidino)}-[Hyp]I[Dab]YSNR[Dab]S[dDab]K[Dab][Dab]EY-OH; lactam 3-14)	<1%
0.125 µg/mL	0.0625 µg/mL	0.0625 µg/mL	CC[C@H](C)[C@H](NC(=O)[C@@H]1C[C@@H](O)CN1C(=O)[C@@H](NC(=N)N)C(C)C)C(=O)N[C@H]1CCNC(=O)CC[C@@H](C(=O)N[C@@H](Cc2ccc(O)cc2)C(=O)O)NC(=O)[C@H](CCN)NC(=O)[C@H](CCN)NC(=O)[C@H](CCCCN)NC(=O)[C@@H](CCN)NC(=O)[C@H]([C@@H](C)O)NC(=O)[C@H](CCN)NC(=O)[C@H](CCCNC(=N)N)NC(=O)[C@H](CC(N)=O)NC(=O)[C@H]([C@@H](C)O)NC(=O)[C@H](Cc2ccc(O)cc2)NC1=O [Example 85, Gua-Val-Hyp-Ile-Dab-Tyr-Thr-Asn-Arg-Dab-Thr-^DDab-Lys-Dab-Dab-Glu-Tyr] ({Val(Nα-amidino)}-[Hyp]I[Dab]YTNR[Dab]T[dDab]K[Dab][Dab]EY-OH; lactam 3-14)	1%
0.0625 µg/mL	0.03125 µg/mL	0.03125 µg/mL	CC[C@H](C)[C@H](NC(=O)[C@@H]1C[C@@H](O)CN1C(=O)[C@@H](NC(=N)N)C(C)C)C(=O)N[C@H]1CCNC(=O)CC[C@@H](C(=O)N[C@@H](Cc2ccc(O)cc2)C(=O)O)NC(=O)[C@H](CCN)NC(=O)[C@H](CCN)NC(=O)[C@H](CCCCN)NC(=O)[C@@H](CCN)NC(=O)[C@H](CO)NC(=O)[C@H](CCN)NC(=O)[C@H](CCCNC(=N)N)NC(=O)[C@H](CC(N)=O)NC(=O)[C@H]([C@@H](C)O)NC(=O)[C@H](Cc2ccc(O)cc2)NC1=O [Example 86, Gua-Val-Hyp-Ile-Dab-Tyr-Thr-Asn-Arg-Dab-Ser-^DDab-Lys-Dab-Dab-Glu-Tyr] ({Val(Nα-amidino)}-[Hyp]I[Dab]YTNR[Dab]S[dDab]K[Dab][Dab]EY-OH; lactam 3-14)	<1%
